This is an account of results in ChEMBL document CHEMBL4043197, “Quinazoline-1-deoxynojirimycin hybrids as high active dual inhibitors of EGFR and α-glucosidase” (Bioorg Med Chem Lett, 2017).

Structures can show the parent of a compound that is named as a salt.

A short description of experiment [1]: Inhibition of recombinant alpha-glucosidase (unknown origin) using PNP-G as substrate preincubated for 5 mins followed by substrate addition measured after 30 mins by spectrophotometric analysis. The arrangement: species or system Homo sapiens.
The target of experiment [2] is T1, Epidermal growth factor receptor (Homo sapiens, UniProt P00533). As to conditions: at 50 nM.
Description: Inhibition of wild type recombinant EGFR (unknown origin) at 50 nM by ELISA relative to control
Experiment [3] deals with T1, Epidermal growth factor receptor. Nature of the experiment: Inhibition of wild type recombinant EGFR (unknown origin) by ELISA. A general note: An ELISA detects its analyte on a solid surface through an enzyme-linked reagent.

T1 sequence (P00533 whole entry): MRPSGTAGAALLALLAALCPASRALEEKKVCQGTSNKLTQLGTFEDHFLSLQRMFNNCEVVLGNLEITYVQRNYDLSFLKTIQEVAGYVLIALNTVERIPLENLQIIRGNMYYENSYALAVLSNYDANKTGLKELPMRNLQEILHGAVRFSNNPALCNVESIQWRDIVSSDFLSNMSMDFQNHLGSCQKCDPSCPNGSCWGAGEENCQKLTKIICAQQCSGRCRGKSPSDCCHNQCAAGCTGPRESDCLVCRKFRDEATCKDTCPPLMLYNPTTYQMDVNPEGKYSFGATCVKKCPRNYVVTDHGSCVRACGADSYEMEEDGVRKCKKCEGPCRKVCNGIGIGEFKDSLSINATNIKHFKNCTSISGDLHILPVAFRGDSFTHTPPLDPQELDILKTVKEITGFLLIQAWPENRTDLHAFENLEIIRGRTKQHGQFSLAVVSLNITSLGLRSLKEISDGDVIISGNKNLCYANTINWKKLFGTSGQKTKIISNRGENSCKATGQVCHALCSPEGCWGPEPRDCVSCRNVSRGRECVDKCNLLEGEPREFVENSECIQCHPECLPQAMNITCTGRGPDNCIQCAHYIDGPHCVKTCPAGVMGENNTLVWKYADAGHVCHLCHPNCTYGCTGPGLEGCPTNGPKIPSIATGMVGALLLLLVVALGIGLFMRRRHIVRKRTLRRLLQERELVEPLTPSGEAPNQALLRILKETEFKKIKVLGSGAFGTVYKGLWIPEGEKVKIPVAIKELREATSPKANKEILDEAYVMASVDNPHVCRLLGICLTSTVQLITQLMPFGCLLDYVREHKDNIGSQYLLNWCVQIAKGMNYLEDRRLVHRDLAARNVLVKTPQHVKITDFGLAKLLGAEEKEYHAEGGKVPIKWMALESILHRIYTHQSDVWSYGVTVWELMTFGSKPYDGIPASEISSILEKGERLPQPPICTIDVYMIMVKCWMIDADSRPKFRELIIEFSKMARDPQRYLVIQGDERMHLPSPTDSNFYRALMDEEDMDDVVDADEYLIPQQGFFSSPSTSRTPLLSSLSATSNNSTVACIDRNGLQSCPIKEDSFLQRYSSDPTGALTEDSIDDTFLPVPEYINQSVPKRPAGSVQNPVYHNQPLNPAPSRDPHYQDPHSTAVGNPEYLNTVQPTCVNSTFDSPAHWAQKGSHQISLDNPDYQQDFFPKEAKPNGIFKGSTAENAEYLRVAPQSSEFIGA

As to `COc1cc2c(Nc3ccc(F)c(Cl)c3)ncnc2cc1OCCN1C[C@H](O)[C@@H](O)[C@H](O)[C@H]1CO`, the IC50 – broadly, the concentration at which inhibition is half-maximal – in experiment [1] stood at 250 nM. Also, the inhibition (in general, the percentage by which the read-out fell short of the control) in experiment [2] was 53.7%.
Turning to `OCCN1C[C@H](O)[C@@H](O)[C@H](O)[C@H]1CO` [MIGLITOL], the IC50 in experiment [1] turned out to be 2430 nM.
On to `COc1cc2ncnc(Nc3ccc(OCc4cccc(F)c4)c(Cl)c3)c2cc1OCCN1C[C@H](O)[C@@H](O)[C@H](O)[C@H]1CO`, for which the IC50 in experiment [1] came to 64100 nM. Also, in experiment [2], the inhibition is 66.5%.
The corresponding values for `COc1cc2ncnc(Nc3ccc(OCc4cccc(F)c4)c(Cl)c3)c2cc1OCCCN1C[C@H](O)[C@@H](O)[C@H](O)[C@H]1CO` are 21200 nM and 74.9%.
In turn, `OC[C@@H]1[C@@H](O)[C@H](O)[C@@H](O)CN1Cc1ccc(-c2ccc3ncnc(Nc4ccc(OCc5cccc(F)c5)c(Cl)c4)c3c2)o1` had an inhibition in experiment [2] of 50.6%.
Turning to `COc1cc2c(Nc3ccc(F)c(Cl)c3)ncnc2cc1OCCCN1C[C@H](O)[C@@H](O)[C@H](O)[C@H]1CO`, the IC50 in experiment [1] amounted to 390 nM; in experiment [3] it was 1.79 nM. In addition, the inhibition in experiment [2] is 85.3%.
The corresponding values for `COc1cc2c(Nc3ccc(OCc4cccc(F)c4)c(Cl)c3)ncnc2cc1OCCCN1C[C@H](O)[C@@H](O)[C@H](O)[C@H]1CO` are 140 nM, 4.53 nM and 78.2%.
As to `C#Cc1cccc(Nc2ncnc3ccc(-c4ccc(CN5C[C@H](O)[C@@H](O)[C@H](O)[C@H]5CO)o4)cc23)c1`, the inhibition in experiment [2] came out at 27.1%.
In turn, `OC[C@@H]1[C@@H](O)[C@H](O)[C@@H](O)CN1Cc1ccc(-c2ccc3ncnc(Nc4ccc(F)c(Cl)c4)c3c2)o1` yielded an inhibition in experiment [2] of 78%.
Turning to `C#Cc1cccc(Nc2ncnc3cc(OC)c(OCCCN4C[C@H](O)[C@@H](O)[C@H](O)[C@H]4CO)cc23)c1`, the IC50 in experiment [1] came to 6190 nM. Besides, the inhibition in experiment [2] came to 79.6%.
In the case of `COc1cc2ncnc(Nc3ccc(F)c(Cl)c3)c2cc1OCCN1C[C@H](O)[C@@H](O)[C@H](O)[C@H]1CO`, in experiment [1], the IC50 came to 8400 nM. In experiment [2], this compound showed an inhibition of 65.2%.
For the compound `COc1cc2ncnc(Nc3ccc(F)c(Cl)c3)c2cc1OCCCN1C[C@H](O)[C@@H](O)[C@H](O)[C@H]1CO`, the results for the IC50 in experiment [1] and in experiment [3] were 4340 nM and 10.7 nM, respectively. In addition, the inhibition in experiment [2] was 83.5%.
As to `C#Cc1cccc(Nc2ncnc3cc(OC)c(OCCN4C[C@H](O)[C@@H](O)[C@H](O)[C@H]4CO)cc23)c1`, in experiment [1], the IC50 amounted to 7180 nM. The inhibition in experiment [2] came to 56.4%.
For the compound `C#Cc1cccc(Nc2ncnc3cc(OCCCN4C[C@H](O)[C@@H](O)[C@H](O)[C@H]4CO)c(OC)cc23)c1`, the figures for the IC50 in experiment [1] and in experiment [3] were 90 nM and 4.87 nM, respectively. The compound further returned an inhibition in experiment [2] of 83.2%.
Turning to `OC[C@H]1NC[C@H](O)[C@@H](O)[C@@H]1O` [DUVOGLUSTAT HYDROCHLORIDE], in experiment [1], the IC50 turned out to be 70 nM.
As to `C#Cc1cccc(Nc2ncnc3cc(OCCN4C[C@H](O)[C@@H](O)[C@H](O)[C@H]4CO)c(OC)cc23)c1`, the IC50 in experiment [1] was found to be 6250 nM. The compound further yielded an inhibition in experiment [2] of 53.5%.
